The values below come from PMC12282101, “Heat shock protein 90 chaperone activity is required for hepatitis A virus replication” (Journal of Virology, 2025).

Where a name gives a salt, the structure may show the parent alone.

For one series, the system named is 18f-NLuc reporter virus. Kind of series: microbe, parasite or virus in culture. Format: cell-based, Hepatitis A virus. The conditions noted are these: for activity at 10 µM: Hepatovirus A, Huh-7.5.1, 72 h, read-out: Normalized HAV production.
A further series has as its system Huh-7.5.1 cells. Kind of series: Cell viability in the chemical screen (Cell TiterGlo). The following applies: 10 µM compound, 72 h. A general note: Cellular ATP, detected with luciferase, serves as a proxy for viable cell number.

Turning to `CC1(C)CC[C@]2(C(=O)O)CC[C@]3(C)C(=CC[C@@H]4[C@@]5(C)CCC(=O)C(C)(C)[C@@H]5CC[C@]43C)[C@@H]2C1` [Oleanonic Acid], in the series with 18f-NLuc reporter virus, the activity at 10 µM was found to be 935%. Also, in the series with Huh-7.5.1 cells, the “Viability Percent DMSO” value is reported as 1.23 Percent DMSO.
For `Cc1cnc(C(=O)N[C@H]2CCCCC/C=C\[C@@H]3C[C@@]3(C(=O)NS(=O)(=O)C3CC3)NC(=O)[C@@H]3C[C@@H](Oc4nc5ccccc5c5ccccc45)CN3C2=O)cn1` [Paritaprevir], in that order: 64% and 91 Percent DMSO.
In the same order, the values of `COc1cc(NC(=O)Nc2cccc(CNC(=O)O[C@H]3CCOC3)c2)ccc1-c1cnco1` [Merimepodib] are 34% and 159 Percent DMSO.
For `Nc1ncnc2c1ncn2[C@@H]1O[C@H](COP(=O)(O)O)[C@@H](O)[C@H]1O.O` [Adenosine 5'-monophosphate monohydrate], in that order: 93% and 115 Percent DMSO.
Consider `CC(=O)OCC(=O)[C@@]1(O)CC[C@H]2[C@@H]3CCC4=CC(=O)C=C[C@]4(C)[C@@]3(Cl)[C@@H](Cl)C[C@@]21C` [Dichlorisone Acetate], for which, in the series on 18f-NLuc reporter virus, the activity at 10 µM was 97%. Besides, the “Viability Percent DMSO” value in the series with Huh-7.5.1 cells is 105 Percent DMSO.
In the case of `Nc1nc(O)c2ncn(COC(CO)CO)c2n1` [Ganciclovir], the activity at 10 µM in the series on 18f-NLuc reporter virus was 87%. Also, in the series with Huh-7.5.1 cells, the “Viability Percent DMSO” value turned out to be 115 Percent DMSO.
In the same order, the values of `CN(C)c1ccc(C(=C2C=CC(=[N+](C)C)C=C2)c2ccc(N(C)C)cc2)cc1` [Crystal Violet] are 0.413% and 20 Percent DMSO.
In the case of `Nc1ncnc2c1ncn2[C@@H]1O[C@H](CO)[C@@H](O)[C@@H]1O` [Vidarabine], the activity at 10 µM in the series with 18f-NLuc reporter virus came out at 104%. Besides, the “Viability Percent DMSO” value with Huh-7.5.1 cells came out at 119 Percent DMSO.
For `C=CC1=C(C(=O)O)N2C(=O)[C@@H](NC(=O)/C(=N\OCC(=O)O)c3csc(N)n3)[C@H]2SC1` [Cefixime], in that order: 90% and 109 Percent DMSO.
In the same order, the values of `Cc1cc(F)c(C(=O)Nc2cccc(-c3nncn3C(C)C)n2)cc1-n1cnc(C2CC2)c1` [Selonsertib] are 38% and 131 Percent DMSO.
As for `CC(C)=O.COC(=O)N[C@H](C(=O)N1CC2(CC2)C[C@H]1c1ncc(-c2ccc3c(c2)C(F)(F)c2cc(-c4ccc5nc([C@@H]6[C@H]7CC[C@H](C7)N6C(=O)[C@@H](NC(=O)OC)C(C)C)[nH]c5c4)ccc2-3)[nH]1)C(C)C` [Ledipasvir acetone], the “Normalized HAV production” value in the series on 18f-NLuc reporter virus is reported as 0.48. Besides, the “Viability Percent DMSO” value in the series on Huh-7.5.1 cells worked out at 172 Percent DMSO.
As to `Cc1cc(C#N)cc(C)c1Oc1nc(Nc2ccc(C#N)cc2)nc(N)c1Br` [Etravirine], in the series on 18f-NLuc reporter virus, the activity at 10 µM stood at 113%. Also, in the series on Huh-7.5.1 cells, the “Viability Percent DMSO” value was 112 Percent DMSO.
For `COC(=O)N[C@H](C(=O)N1CCC[C@H]1c1nc(-c2ccc(-c3ccc(-c4c[nH]c([C@@H]5CCCN5C(=O)[C@@H](NC(=O)OC)C(C)C)n4)cc3)cc2)c[nH]1)C(C)C` [Daclatasvir dihydrochloride], in that order: 88% and 125 Percent DMSO.
In the same order, the values of `CCOC(=O)c1ccc(OCCC2CCN(c3ccc(C)nn3)CC2)cc1` [Pirodavir] are 91% and 134 Percent DMSO.
For `NC(=O)N1CCC(CC(=O)N2CCC([C@H]3c4ncc(Br)cc4CCc4cc(Cl)cc(Br)c43)CC2)CC1` [Lonafarnib], the activity at 10 µM in the series on 18f-NLuc reporter virus was determined as 18%. Also, in the series with Huh-7.5.1 cells, the “Viability Percent DMSO” value turned out to be 167 Percent DMSO.
For `COc1c(-c2ccc3cc(NS(C)(=O)=O)ccc3c2)cc(-n2ccc(=O)[nH]c2=O)cc1C(C)(C)C` [Dasabuvir], in that order: 14% and 116 Percent DMSO.
Take `Cc1cc(/C=C/C#N)cc(C)c1Nc1ccnc(Nc2ccc(C#N)cc2)n1` [Rilpivirine]: the activity at 10 µM in the series on 18f-NLuc reporter virus was determined as 71%. Moreover, the “Viability Percent DMSO” value in the series with Huh-7.5.1 cells was determined as 132 Percent DMSO.
In the same order, the values of `C=C(C)[C@@H]1CC[C@]2(CO)CC[C@]3(C)[C@H](CC[C@@H]4[C@@]5(C)CC[C@H](O)C(C)(C)[C@@H]5CC[C@]43C)[C@@H]12` [Betulin] are 119% and 123 Percent DMSO.
In the same order, the values of `CCC[C@H](NC(=O)[C@@H]1[C@H]2CCC[C@H]2CN1C(=O)[C@@H](NC(=O)[C@@H](NC(=O)c1cnccn1)C1CCCCC1)C(C)(C)C)C(=O)C(=O)NC1CC1` [Telaprevir] are 73% and 119 Percent DMSO.
`CN[C@@H]1[C@H](O)[C@H](NC)[C@H]2O[C@@]3(O)C(=O)C[C@@H](C)O[C@H]3O[C@@H]2[C@H]1O.Cl.Cl` [Spectinomycin dihydrochloride]: in the series with 18f-NLuc reporter virus, the “Normalized HAV production” value is on record as 0.83. Moreover, the “Viability Percent DMSO” value in the series on Huh-7.5.1 cells is 109 Percent DMSO.
Turning to `OC[C@H]1O[C@@H]2O[C@H]3[C@H](O)[C@@H](O)[C@@H](O[C@H]4[C@H](O)[C@@H](O)[C@@H](O[C@H]5[C@H](O)[C@@H](O)[C@@H](O[C@H]6[C@H](O)[C@@H](O)[C@@H](O[C@H]7[C@H](O)[C@@H](O)[C@@H](O[C@H]8[C@H](O)[C@@H](O)[C@@H](O[C@H]1[C@H](O)[C@H]2O)O[C@@H]8CO)O[C@@H]7CO)O[C@@H]6CO)O[C@@H]5CO)O[C@@H]4CO)O[C@@H]3CO` [Beta-Cyclodextrin], the activity at 10 µM in the series with 18f-NLuc reporter virus is 72%. The “Viability Percent DMSO” value in the series with Huh-7.5.1 cells worked out at 117 Percent DMSO.
In the same order, the values of `CN(C)C[C@H](O)Cn1c2ccc(Br)cc2c2cc(Br)ccc21` (racemic) [Wiskostatin] are 101% and 92 Percent DMSO.
In the same order, the values of `CC1(C)CC[C@]2(C(=O)O)CC[C@]3(C)C(=CC[C@@H]4[C@@]5(C)CC[C@H](O)C(C)(C)[C@@H]5CC[C@]43C)[C@@H]2C1` [Oleanolic Acid] are 82% and 118 Percent DMSO.
On to `O[C@H]1[C@H](O)[C@@H](O)[C@H](O)[C@@H](O)[C@H]1O` [Inositol], for which the activity at 10 µM with 18f-NLuc reporter virus was 122%. In the series with Huh-7.5.1 cells, the “Viability Percent DMSO” value turned out to be 93 Percent DMSO.
As to `O=C(/C=C\n1cnc(-c2cc(C(F)(F)F)cc(C(F)(F)F)c2)n1)NNc1ccccn1` [Verdinexor], in the series on 18f-NLuc reporter virus, the activity at 10 µM is 22%. Further, the “Viability Percent DMSO” value in the series on Huh-7.5.1 cells was determined as 174 Percent DMSO.
Consider `CC(=O)Oc1c(C)c(C)c2c(c1C)CCC(C)(CCC[C@H](C)CCC[C@H](C)CCCC(C)C)O2` (some centres unmarked) [Vitamin E Acetate], for which the activity at 10 µM with 18f-NLuc reporter virus was 133%. In addition, the “Viability Percent DMSO” value in the series with Huh-7.5.1 cells was determined as 82 Percent DMSO.
Turning to `Cc1c(O)cccc1C(=O)N[C@@H](CSc1ccccc1)[C@H](O)CN1C[C@H]2CCCC[C@H]2C[C@H]1C(=O)NC(C)(C)C` [Nelfinavir Mesylate], the activity at 10 µM in the series with 18f-NLuc reporter virus turned out to be 69%. Besides, in the series with Huh-7.5.1 cells, the “Viability Percent DMSO” value is recorded as 88 Percent DMSO.
For `Clc1ccc(Cn2c(CN3CCCC3)nc3ccccc32)cc1` [Clemizole], in that order: 58% and 166 Percent DMSO.
For `CC(C)(C)C(=O)OCOP(=O)(COCCn1cnc2c(N)ncnc21)OCOC(=O)C(C)(C)C` [Adefovir dipivoxil], in that order: 138% and 74 Percent DMSO.
Take `O=C(/C=C/c1ccc(O)cc1)c1ccc(O)cc1O` [Isoliquiritigenin]: the activity at 10 µM in the series on 18f-NLuc reporter virus is 104%. Besides, the “Viability Percent DMSO” value in the series with Huh-7.5.1 cells was found to be 100 Percent DMSO.
For `C[C@H](NC(=O)C(=O)Nc1ccccc1C(C)(C)C)C(=O)N[C@@H](CC(=O)O)C(=O)COc1c(F)c(F)cc(F)c1F` [Emricasan], in that order: 164% and 90 Percent DMSO.
For `CC(C)c1cc(Oc2c(Cl)cc(-n3nc(C#N)c(=O)[nH]c3=O)cc2Cl)n[nH]c1=O` [MGL3196], in that order: 136% and 118 Percent DMSO.
With `COc1ccc([C@H]2OC[C@H]3[C@@H]2CO[C@H]3c2ccc(O[C@@H]3O[C@H](CO)[C@@H](O)[C@H](O)[C@H]3O)c(OC)c2)cc1OC` [Forsythin], the “Normalized HAV production” value in the series with 18f-NLuc reporter virus was 1.06. For the same molecule, the “Viability Percent DMSO” value in the series with Huh-7.5.1 cells turned out to be 127 Percent DMSO.
For `CC(N)C12CC3CC(CC(C3)C1)C2` (centres unmarked) [Rimantadine hydrochloride], the activity at 10 µM in the series on 18f-NLuc reporter virus is 113%. Besides, the “Viability Percent DMSO” value with Huh-7.5.1 cells came out at 98 Percent DMSO.
In the case of `O=C(O[C@@H]1Cc2c(O)cc(O)cc2O[C@@H]1c1cc(O)c(O)c(O)c1)c1cc(O)c(O)c(O)c1` [(-)-Epigallocatechin Gallate], the activity at 10 µM with 18f-NLuc reporter virus amounted to 105%. The “Viability Percent DMSO” value with Huh-7.5.1 cells is recorded as 125 Percent DMSO.
In the same order, the values of `Nc1nc2c(ncn2COCCO)c(=O)[nH]1` [Aciclovir] are 99% and 110 Percent DMSO.
For `O=c1[nH]cnc2c1ncn2[C@H]1CC[C@@H](CO)O1` [Didanosine], in that order: 155% and 108 Percent DMSO.
In the same order, the values of `CCOCc1nc2c(N)nc3ccccc3c2n1CC(C)(C)O` [Resiquimod] are 130% and 107 Percent DMSO.
As to `O=C(O)P(=O)(O)O` [Foscarnet sodium], the activity at 10 µM in the series with 18f-NLuc reporter virus worked out at 109%. Also, in the series on Huh-7.5.1 cells, the “Viability Percent DMSO” value is reported as 94 Percent DMSO.
For the molecule `Cc1nc(Nc2ccc(F)cc2)nc(N2CCc3ccccc3C2C)c1C` (centres unmarked) [Revaprazan hydrochloride], the activity at 10 µM with 18f-NLuc reporter virus was found to be 87%. Besides, in the series with Huh-7.5.1 cells, the “Viability Percent DMSO” value amounted to 115 Percent DMSO.
In the same order, the values of `O=C(Nc1ccc(O)cc1)c1ccccc1O` [Osalmid] are 132% and 93 Percent DMSO.
In the same order, the values of `CC[n+]1c(-c2ccccc2)c2cc(N)ccc2c2ccc(N)cc21` [Ethidium bromide] are 4.56% and 85 Percent DMSO.
Take `COc1cc(O)c(CC=C(C)C)c(O)c1C(=O)/C=C/c1ccc(O)cc1` [Xanthohumol]: the activity at 10 µM in the series with 18f-NLuc reporter virus worked out at 92%. In addition, the “Viability Percent DMSO” value in the series with Huh-7.5.1 cells is 102 Percent DMSO.
